Tests used:
[1] = tested on: neointimal formation; details: rats; cited from earlier work
[2] = tested on: congestive heart failure in Dahl salt-sensitive rats; details: cited from earlier work
[3] = tested on: rat stroke model; details: cited from earlier work
[4] = biological target: ROCK1 (Homo sapiens (Human), UniProt Q13464); assay: ROCK assay (LABCHIP peptide phosphorylation), ROCK1; type: biochemical; details: 5 μM ATP, 1.5 μM peptide substrate; read-out: ROCK1 IC50
[5] = biological target: ROCK2 (Homo sapiens (Human), UniProt O75116); assay: ROCK assay (LABCHIP peptide phosphorylation), ROCK2; type: biochemical; details: 5 μM ATP, 1.5 μM peptide substrate
Chain of ROCK2 (O75116 whole entry, species assumed): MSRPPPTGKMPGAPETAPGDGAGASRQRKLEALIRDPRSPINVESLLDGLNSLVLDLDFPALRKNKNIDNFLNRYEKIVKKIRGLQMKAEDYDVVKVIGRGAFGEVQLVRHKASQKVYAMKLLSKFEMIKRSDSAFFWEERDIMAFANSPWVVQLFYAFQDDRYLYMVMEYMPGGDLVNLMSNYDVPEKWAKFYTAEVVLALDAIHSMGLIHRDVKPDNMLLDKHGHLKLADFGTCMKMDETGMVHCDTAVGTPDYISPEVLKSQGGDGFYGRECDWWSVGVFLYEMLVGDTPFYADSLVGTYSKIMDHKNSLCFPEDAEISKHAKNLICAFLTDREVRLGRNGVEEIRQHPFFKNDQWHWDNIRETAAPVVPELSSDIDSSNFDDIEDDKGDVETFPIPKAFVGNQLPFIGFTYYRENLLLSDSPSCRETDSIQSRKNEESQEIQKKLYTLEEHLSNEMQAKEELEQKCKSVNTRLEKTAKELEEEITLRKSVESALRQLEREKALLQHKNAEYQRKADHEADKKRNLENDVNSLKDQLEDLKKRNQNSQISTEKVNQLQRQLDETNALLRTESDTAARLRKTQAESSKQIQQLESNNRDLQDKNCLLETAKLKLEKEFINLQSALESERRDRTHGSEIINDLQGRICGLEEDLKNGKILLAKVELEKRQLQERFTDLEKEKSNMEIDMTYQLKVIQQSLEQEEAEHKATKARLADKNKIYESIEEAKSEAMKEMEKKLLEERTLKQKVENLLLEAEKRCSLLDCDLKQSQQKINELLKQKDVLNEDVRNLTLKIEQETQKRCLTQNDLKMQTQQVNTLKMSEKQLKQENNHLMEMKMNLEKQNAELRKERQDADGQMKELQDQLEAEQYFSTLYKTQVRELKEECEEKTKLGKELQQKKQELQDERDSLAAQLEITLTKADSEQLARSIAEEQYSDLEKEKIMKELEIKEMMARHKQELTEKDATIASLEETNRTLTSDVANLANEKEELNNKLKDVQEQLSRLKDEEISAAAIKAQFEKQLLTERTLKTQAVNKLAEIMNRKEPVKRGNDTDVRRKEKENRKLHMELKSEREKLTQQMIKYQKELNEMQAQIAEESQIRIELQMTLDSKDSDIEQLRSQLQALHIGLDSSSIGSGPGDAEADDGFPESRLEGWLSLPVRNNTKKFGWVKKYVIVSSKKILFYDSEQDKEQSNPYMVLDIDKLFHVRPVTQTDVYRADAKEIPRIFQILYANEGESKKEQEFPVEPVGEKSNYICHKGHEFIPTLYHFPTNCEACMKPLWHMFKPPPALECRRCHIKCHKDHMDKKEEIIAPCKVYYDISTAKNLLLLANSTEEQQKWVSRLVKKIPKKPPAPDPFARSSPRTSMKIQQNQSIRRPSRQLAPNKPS

Chain of ROCK1 (Q13464 whole entry, species assumed): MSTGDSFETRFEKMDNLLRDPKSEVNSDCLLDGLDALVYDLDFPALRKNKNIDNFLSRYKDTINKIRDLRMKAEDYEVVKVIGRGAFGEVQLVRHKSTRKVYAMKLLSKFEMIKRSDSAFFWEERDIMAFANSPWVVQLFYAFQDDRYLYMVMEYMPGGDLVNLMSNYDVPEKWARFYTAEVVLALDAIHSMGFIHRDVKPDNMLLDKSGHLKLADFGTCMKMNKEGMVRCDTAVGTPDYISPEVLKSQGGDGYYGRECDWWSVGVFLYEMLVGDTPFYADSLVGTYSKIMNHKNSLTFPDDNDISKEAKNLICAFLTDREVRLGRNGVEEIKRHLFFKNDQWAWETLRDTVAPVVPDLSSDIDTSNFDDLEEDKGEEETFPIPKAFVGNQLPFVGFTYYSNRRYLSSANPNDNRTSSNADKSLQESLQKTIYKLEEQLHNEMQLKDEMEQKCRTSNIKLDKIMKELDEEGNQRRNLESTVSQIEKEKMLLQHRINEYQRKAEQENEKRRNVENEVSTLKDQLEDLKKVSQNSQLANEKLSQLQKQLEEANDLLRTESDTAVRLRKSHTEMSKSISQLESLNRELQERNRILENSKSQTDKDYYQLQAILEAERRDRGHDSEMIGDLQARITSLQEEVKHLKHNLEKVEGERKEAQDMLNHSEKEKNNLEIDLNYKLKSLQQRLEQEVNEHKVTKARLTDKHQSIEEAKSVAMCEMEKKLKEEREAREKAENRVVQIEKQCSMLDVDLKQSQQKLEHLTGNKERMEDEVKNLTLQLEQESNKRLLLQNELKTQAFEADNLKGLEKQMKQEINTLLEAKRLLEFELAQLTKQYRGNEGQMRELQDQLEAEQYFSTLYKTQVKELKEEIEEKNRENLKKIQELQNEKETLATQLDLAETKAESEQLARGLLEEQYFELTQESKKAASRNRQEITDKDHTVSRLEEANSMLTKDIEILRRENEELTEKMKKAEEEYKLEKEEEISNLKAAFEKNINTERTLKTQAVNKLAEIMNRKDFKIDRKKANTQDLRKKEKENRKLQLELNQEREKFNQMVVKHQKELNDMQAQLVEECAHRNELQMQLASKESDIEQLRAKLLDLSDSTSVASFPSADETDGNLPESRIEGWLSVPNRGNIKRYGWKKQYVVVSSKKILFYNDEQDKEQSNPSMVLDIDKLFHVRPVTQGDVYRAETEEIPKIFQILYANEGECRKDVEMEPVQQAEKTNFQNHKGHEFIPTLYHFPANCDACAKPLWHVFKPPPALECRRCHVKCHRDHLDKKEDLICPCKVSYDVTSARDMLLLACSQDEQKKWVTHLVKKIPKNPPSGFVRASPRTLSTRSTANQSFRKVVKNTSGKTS

IC50 [4] [nM]	IC50 [5] [nM]	Compound	neointimal formation [1]	ventricular hypertrophy, fibrosis and function [2]	infarct size and neurologic deficit [3]
–	–	C[C@@H](N)[C@H]1CC[C@H](C(=O)Nc2ccncc2)CC1 [Example Y-27632]	inhibited neointimal formation	improve ventricular hypertrophy, fibrosis and function	–
–	–	O=S(=O)(c1cccc2cnccc12)N1CCCNCC1 [fasudil]	–	–	reduce both the infarct size and neurologic deficit
0.1 to 100	0.1 to 100	N-[4-(4-oxo-3,4- dihydrophthalazin-1- yl)phenyl]-1-[3- ylmethyl]-1H-indazole- 3-carboxamide [Example 170]	–	–	–
0.1 to 100	0.1 to 100	N-[4-(4-oxo-3,4- dihydrophthalazin-1- yl)phenyl]pyrazolo[1,5- a]pyrimidine-2- carboxamide [Example 102]	–	–	–

From patent US9926282B2, “Phthalazinones and isoquinolinones as rock inhibitors” (BRISTOL-MYERS SQUIBB COMPANY, priority 2013, dated 2018)
